{"source": "ChEMBL document CHEMBL3352398", "about": "“2-(2-Bromophenyl)-formononetin and 2-heptyl-formononetin are PPARγ partial agonists and reduce lipid accumulation in 3T3-L1 adipocytes” (Bioorg Med Chem, 2014)", "key": {"[1]": {"test_system": "3T3-L1", "assay": "Effect on adipogenesis in mouse 3T3L1 cells in DI media assessed as increase in fat-laden mature adipocytes at <25 uM after 8 days by oil red o assay", "type": "functional, cell-based"}, "[2]": {"test_system": "3T3-L1", "assay": "Reduction in lipogenesis in mouse 3T3L1 cells assessed as down regulation of Scd1 gene exression by real time-qPCR analysis", "type": "functional, cell-based"}, "[3]": {"test_system": "3T3-L1", "assay": "Effect on adipogenesis in mouse 3T3L1 cells in DI media assessed as reduction in lipid accumulation at 50 uM measured on day 8 by fluorescence-based AdipoRed assay", "type": "functional, cell-based"}, "[4]": {"test_system": "3T3-L1", "assay": "Reduction of adipogenesis in mouse 3T3L1 cells assessed as decrease in lipid accumulation measured on day 8 by fluorescence-based AdipoRed assay", "type": "functional, cell-based"}, "[5]": {"test_system": "3T3-L1", "assay": "Reduction in lipogenesis in mouse 3T3L1 cells assessed as down regulation of Srebf1 gene exression by real time-qPCR analysis", "type": "functional, cell-based"}, "[6]": {"assay": "Cytotoxicity against mouse 3T3L1 cells assessed as effect on lactate dehydrogenase release at 5 to 50 uM measured on day 2", "type": "cell-based", "conditions": "3t3-l1, 50 µM"}, "[7]": {"test_system": "3T3-L1", "assay": "Reduction in triglyceride release in mouse 3T3L1 cells at 50 uM after 48 hrs by fluorescence-based AdipoRed assay", "type": "functional, cell-based"}, "[8]": {"target": "T1, Peroxisome proliferator-activated receptor alpha (Homo sapiens) (UniProt Q07869)", "T1 sequence (whole entry)": "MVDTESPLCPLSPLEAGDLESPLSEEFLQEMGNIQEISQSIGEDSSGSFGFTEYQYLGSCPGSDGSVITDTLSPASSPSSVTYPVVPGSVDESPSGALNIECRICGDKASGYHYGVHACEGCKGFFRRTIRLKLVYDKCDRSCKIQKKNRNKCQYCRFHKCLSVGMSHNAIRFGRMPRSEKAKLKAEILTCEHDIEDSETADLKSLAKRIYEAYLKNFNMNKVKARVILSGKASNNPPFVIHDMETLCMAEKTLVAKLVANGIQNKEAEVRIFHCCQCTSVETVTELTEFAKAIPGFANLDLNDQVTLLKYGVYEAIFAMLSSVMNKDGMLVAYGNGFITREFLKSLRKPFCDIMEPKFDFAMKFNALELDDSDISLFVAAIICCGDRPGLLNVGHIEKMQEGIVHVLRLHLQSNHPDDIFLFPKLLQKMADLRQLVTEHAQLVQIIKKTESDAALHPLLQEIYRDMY", "assay": "Agonist activity at PPAR-alpha (unknown origin) by transactivation assay"}, "[9]": {"test_system": "3T3-L1", "assay": "Effect on adipogenesis in mouse 3T3L1 cells assessed as reduction in Pparg gene expression at 5 to 50 uM after 4 days by real time quantitative PCR analysis relative to vehicle-treated control", "type": "functional, cell-based"}, "[10]": {"test_system": "3T3-L1", "assay": "Induction of lipolysis in mouse 3T3L1 cells assessed as up-regulation of Atgl gene exression by real time-qPCR analysis", "type": "functional, cell-based"}, "[11]": {"target": "T2, Peroxisome proliferator-activated receptor gamma (Homo sapiens, UniProt P37231)", "T2 sequence (P37231 whole entry)": "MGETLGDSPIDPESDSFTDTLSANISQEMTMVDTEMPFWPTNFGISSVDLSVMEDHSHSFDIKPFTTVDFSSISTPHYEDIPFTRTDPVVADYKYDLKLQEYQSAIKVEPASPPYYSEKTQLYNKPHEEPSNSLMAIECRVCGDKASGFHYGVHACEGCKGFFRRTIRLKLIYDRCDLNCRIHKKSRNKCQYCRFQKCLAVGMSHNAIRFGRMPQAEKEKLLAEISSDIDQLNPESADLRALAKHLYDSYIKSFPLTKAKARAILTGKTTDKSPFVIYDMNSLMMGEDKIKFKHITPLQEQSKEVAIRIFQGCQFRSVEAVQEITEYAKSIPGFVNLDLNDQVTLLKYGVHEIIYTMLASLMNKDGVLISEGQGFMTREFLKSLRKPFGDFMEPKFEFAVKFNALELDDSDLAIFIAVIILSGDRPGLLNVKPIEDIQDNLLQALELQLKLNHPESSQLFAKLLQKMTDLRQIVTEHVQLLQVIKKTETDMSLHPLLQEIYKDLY", "assay": "Competitive binding to human GST-tagged PPAR-gamma by TR-FRET assay"}, "[12]": {"test_system": "3T3-L1", "assay": "Effect on adipogenesis in mouse 3T3L1 cells assessed as reduction in Srebf1 gene expression at 5 to 50 uM after 4 days by real time quantitative PCR analysis relative to vehicle-treated control", "type": "functional, cell-based"}, "[13]": {"test_system": "3T3-L1", "assay": "Effect on adipogenesis in mouse 3T3L1 cells in DI media assessed as reduction in fat-laden mature adipocytes at 50 uM after 8 days by oil red o assay", "type": "functional, cell-based"}, "[14]": {"test_system": "3T3-L1", "assay": "Effect on adipogenesis in mouse 3T3L1 cells assessed as reduction in Adipoq gene expression at 5 to 50 uM after 4 days by real time quantitative PCR analysis relative to vehicle-treated control", "type": "functional, cell-based"}}, "note": "pIC50: −log10 of the molar value. Calls of active or inactive are those of the source. The rule behind the calls is not given here.", "data": [{"smiles": "CCCCCCCc1oc2cc(O)ccc2c(=O)c1-c1ccc(OC)cc1", "values": [{"measurement": "Activity", "setting": "[1]", "value": "Active"}, {"measurement": "Activity", "setting": "[2]", "value": "Active"}, {"measurement": "Activity", "setting": "[3]", "value": "Active"}, {"measurement": "Activity", "setting": "[4]", "value": "Dose-dependent effect"}, {"measurement": "Activity", "setting": "[5]", "value": "Active"}, {"measurement": "Activity", "setting": "[6]", "value": "Non-toxic"}, {"measurement": "Activity", "setting": "[7]", "value": "Active"}, {"measurement": "Activity", "setting": "[8]", "value": "inactive"}, {"measurement": "Activity", "setting": "[9]", "value": "Dose-dependent effect"}, {"measurement": "Activity", "setting": "[10]", "value": "Active"}, {"measurement": "pIC50", "setting": "[11]", "value": 5.30}, {"measurement": "Activity", "setting": "[12]", "value": "Dose-dependent effect"}, {"measurement": "Activity", "setting": "[13]", "value": "Active"}, {"measurement": "Activity", "setting": "[14]", "value": "Dose-dependent effect"}]}]}
